Results from article PMC11397566, “Cytotoxic Natural Products from the Jurassic Relict Osmunda regalis L” (Molecules, 2024).

What was measured:
Format in all cases: cell-based
MOLM13 cells = assay: Cytotoxicity (WST-1 metabolic activity) towards AML cell line MOLM13; conditions: for cytotoxic activity against the MOLM13 cells (in words): compared with a DMSO control, 72 hours of incubation; for EC50: Homo sapiens, MOLM-13, metabolic activity (WST-1) after 72 h of incubation, compounds diluted in DMSO, three independent experiments
Method: (§1) The pure compounds were diluted to create stock solutions with a final concentration of 20 mM in DMSO (Dimethyl Sulfoxide—for molecular biology, Sigma-Aldrich, Saint Louise, MO, USA). Normal rat kidney epithelial cells (NRK, ATCC no.: CRL-6509) and rat cardiomyoblasts (H9c2, ATCC no.: CRL-1446) were grown in DMEM medium enriched with 10% foetal bovine serum (FBS, Invitrogen, Carlsbad, CA, USA). Once the cells achieved 80% confluence, they were gently detached using trypsin treatment (0.33 mg/mL trypsin for 5 min at 37 °C), centrifuged (160× g, 4 min), and then reseeded in fresh medium to reach 25% confluence.
The AML cell line MOLM13 (DSMZ no.: ACC554, [39]) was maintained in RPMI-1640 medium supplemented with 10% FBS and 8 mM L-glutamine (Sigma Life Science, Dorset, UK). The cells were kept in suspension cultures with a density of 150,000 to 700,000 cells/mL.
(§2) All media were further supplemented with 1 IU/mL penicillin and 1 mg/mL streptomycin (both from Cambrex, Liège, Belgium) and incubated in a humidified environment (37 °C, 5% CO2). For the cytotoxicity experiments with compounds 11 to 15, the NRK and H9c2 cells were seeded in 96-well tissue culture plates (4000 cells/well, 0.1 mL) and left overnight to attach before treatments. The MOLM13 cells were seeded in 96-well tissue culture plates at 20,000 cells/well in 0.1 mL on the day of the experiment.
(§3) Compounds dissolved in DMSO were added to the cells, and the plates were incubated for 72 hours before adding the tetrazolium salt WST-1 according to the manufacturer’s instructions (Roche Diagnostics GmbH, Mannheim, Germany). The plates were further incubated for two hours before the signal was recorded at 450 nm with reference at 620 nm. For black subtraction, medium and plant compounds were added to WST-1. This procedure was performed after 24 and 72 h.
(§4) After recording WST-1, the cells were next fixed with 2% buffered formaldehyde (pH 7.4) with 0.01 mg/mL of the DNA-specific fluorescent dye, […]. As previously described, the presence of dead (apoptotic or necrotic) cells was verified by differential interference contrast and fluorescence microscopy.
(§5) EC50 values were determined by a four-parameter regression analysis as described by Viktorsson et al., using SigmaPlot ver. 14.0 (Systat Software Inc., San Jose, CA, USA).

H9c2 cells = assay: Cytotoxicity (WST-1 metabolic activity) towards rat cardiomyoblasts H9c2; conditions: metabolic activity (WST-1) after 72 h of incubation, compounds diluted in DMSO, three independent experiments
Method: as §1, with “confluence. […]” for “confluence.”
as §3, with “For black subtraction, medium and plant compounds were added to WST-1. This procedure was performed after 24 and 72 h.” left out
as §4
EC50 values were determined by a four-parameter regression analysis as described by Viktorsson et al., using SigmaPlot ver. […]

NRK cells = assay: Cytotoxicity (WST-1 metabolic activity) towards normal rat kidney epithelial cells NRK; conditions: for EC50: Rattus norvegicus, NRK, metabolic activity (WST-1) after 72 h of incubation, compounds diluted in DMSO, three experiments, "-" = no data available due to low or no toxicity
Method: as §1, §2, §3, §4, §5

## CC1OC(OC2C(OC3C(Oc4c(-c5ccc(O)cc5)oc5cc(O)cc(O)c5c4=O)OC(CO)C(O)C3O)OC(CO)C(O)C2O)C(O)C(O)C1O (stereo not drawn) [Compound 2, kaempferol 3-O-(2’’-O-(2’’’-α-rhamnopyranosyl)-β-glucopyranosyl)-β-glucopyranoside]
MOLM13 cells
  cytotoxic activity against the MOLM13 cells (in words): Only compounds 11 and 15, which are γ- and δ-lactones, respectively, exhibited significant cytotoxic activity

## CC1OC(OC2C(OC3C(Oc4c(-c5ccc(O)c(O)c5)oc5cc(O)cc(O)c5c4=O)OC(CO)C(O)C3O)OC(CO)C(O)C2O)C(O)C(O)C1O (stereo not drawn) [Compound 3, quercetin 3-O-(2’’-O-(2’’’-α-rhamnopyranosyl)-β-glucopyranosyl)-β-glucopyranoside]
MOLM13 cells
  cytotoxic activity against the MOLM13 cells (in words): Only compounds 11 and 15, which are γ- and δ-lactones, respectively, exhibited significant cytotoxic activity

## CC1OC(OC2C(OC3C(Oc4c(-c5ccc(O)cc5)oc5cc(O)cc(O)c5c4=O)OC(CO)C(O)C3O)OC(COC(=O)C=Cc3ccc(O)c(O)c3)C(O)C2O)C(O)C(O)C1O (stereo not drawn) [Compound 6, kaempferol 3-O-(2’’-O-(2’’’-O-α-rhamnopyranosyl-6’’’-O-(E)-caffeoyl-)-β-glucopyranosyl)-β-glucopyranoside]
MOLM13 cells
  cytotoxic activity against the MOLM13 cells (in words): Only compounds 11 and 15, which are γ- and δ-lactones, respectively, exhibited significant cytotoxic activity

## COc1cc(C2Oc3c(OC)cc(CCCO)cc3[C@H]2CO)ccc1O[C@@H]1O[C@@H](C)[C@H](O)[C@@H](O)[C@H]1O (stereo partly drawn) [Compound 8, (7R,8S)-dihydrodehydrodiconiferyl alcohol 4-O-α-rhamnopyranoside]
MOLM13 cells
  cytotoxic activity against the MOLM13 cells (in words): Only compounds 11 and 15, which are γ- and δ-lactones, respectively, exhibited significant cytotoxic activity

## COc1cc(C2OC2CO)ccc1O (centres unmarked) [Compound 10, epoxyconiferyl alcohol]
MOLM13 cells
  cytotoxic activity against the MOLM13 cells (in words): Only compounds 11 and 15, which are γ- and δ-lactones, respectively, exhibited significant cytotoxic activity

## CC(O)C1C=CC(=O)O1 (centres unmarked) [Compound 11, 5-hydroxy-2-hexen-4-olide]
MOLM13 cells
  EC50: 46.2 ± 0.07 µM
  cytotoxic activity against the MOLM13 cells (in words): significant cytotoxic activity
H9c2 cells
  EC50: 48.7 ± 0.18 µM
NRK cells
  EC50: 49.6 ± 0.11 µM

## CO[C@H]1CC(=O)O[C@@H]1C(C)O (some centres unmarked) [Compound 12, 3-methoxy-5-hydroxy-4-olide]
MOLM13 cells
  cytotoxic activity against the MOLM13 cells (in words): Only compounds 11 and 15, which are γ- and δ-lactones, respectively, exhibited significant cytotoxic activity

## CC(O)C1OC(=O)C(C2CC(=O)OC(C)C2O)C1O [Compound 13, (4R,5S,3’S,1’’S,4’R)-4-hydroxy-3-(3’-hydroxy-4’-(1-hydroxyethyl)-oxotetrahydrofuran-5-methyltetrahydropyranone]
MOLM13 cells
  cytotoxic activity against the MOLM13 cells (in words): Only compounds 11 and 15, which are γ- and δ-lactones, respectively, exhibited significant cytotoxic activity

## CC1=CC(=O)CC(C)(C)C1CCC(C)O[C@@H]1O[C@H](CO)[C@@H](O)[C@H](O)[C@H]1O (stereo partly drawn) [Compound 14, blumenol C 9-O-β-glucopyranoside]
MOLM13 cells
  cytotoxic activity against the MOLM13 cells (in words): Only compounds 11 and 15, which are γ- and δ-lactones, respectively, exhibited significant cytotoxic activity

## CC(O)C(=O)CCC(=O)OC1C=CC(=O)OC1C (centres unmarked) [Compound 15, 4-O-(5-hydroxy-4-oxohexanoyl) osmundalactone]
MOLM13 cells
  EC50: 111.9 ± 0.07 µM
  cytotoxic activity against the MOLM13 cells (in words): significant cytotoxic activity
H9c2 cells
  EC50: 102.7 ± 0.12 µM
NRK cells; 200 μM, 72 h
  reduced metabolic activity in the NRK cells at the highest concentration tested: did not detect reduced metabolic activity
NRK cells
  EC50: > 200 µM
